The results in this text go back to ChEMBL document CHEMBL1201862, “PubChem BioAssay data set” (2004).

One experiment addresses T1, Leucine aminopeptidase (Plasmodium falciparum 3D7, UniProt Q8IL11).
T1 sequence (Q8IL11 whole entry): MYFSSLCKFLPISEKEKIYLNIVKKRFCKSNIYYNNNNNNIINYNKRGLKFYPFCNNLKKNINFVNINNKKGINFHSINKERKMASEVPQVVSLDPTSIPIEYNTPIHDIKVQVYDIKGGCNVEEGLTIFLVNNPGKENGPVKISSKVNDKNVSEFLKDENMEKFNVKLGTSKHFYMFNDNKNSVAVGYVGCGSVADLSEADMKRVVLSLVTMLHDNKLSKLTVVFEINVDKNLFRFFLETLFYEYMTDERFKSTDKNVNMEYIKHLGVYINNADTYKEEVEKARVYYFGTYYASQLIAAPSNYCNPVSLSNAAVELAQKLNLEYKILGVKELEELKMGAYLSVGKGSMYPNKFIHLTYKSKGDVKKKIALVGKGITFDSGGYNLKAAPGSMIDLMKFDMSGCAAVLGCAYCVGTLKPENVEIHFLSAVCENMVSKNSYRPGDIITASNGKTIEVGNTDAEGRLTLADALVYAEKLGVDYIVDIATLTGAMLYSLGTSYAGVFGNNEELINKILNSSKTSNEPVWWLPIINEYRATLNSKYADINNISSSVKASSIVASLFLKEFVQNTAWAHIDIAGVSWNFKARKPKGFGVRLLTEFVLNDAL
Put plainly: P. falciparum M17LAP inhibitors, primary screen, biochemical, fluorogenic H-Leu-NHMec substrate, 1536-well (AID 1619). The class given is functional.

Experiment [1] deals with FAD-linked sulfhydryl oxidase ALR (Homo sapiens, UniProt P55789). Put plainly: ALR-catalysed DTT oxidation blockers – biochemical, H2O2 detection, luminescence, cherry-pick, dose response (AID 493248).
FAD-linked sulfhydryl oxidase ALR, sequence (P55789 whole entry): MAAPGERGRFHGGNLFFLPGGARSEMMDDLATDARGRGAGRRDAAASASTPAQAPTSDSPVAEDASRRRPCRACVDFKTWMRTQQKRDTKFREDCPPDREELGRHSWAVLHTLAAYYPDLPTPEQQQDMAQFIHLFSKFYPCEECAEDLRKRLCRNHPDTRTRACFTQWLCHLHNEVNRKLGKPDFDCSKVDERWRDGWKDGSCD
In experiment [2] the target is T2, Heat shock factor protein 1 (Mus musculus, UniProt P38532).
T2 sequence (P38532 whole entry): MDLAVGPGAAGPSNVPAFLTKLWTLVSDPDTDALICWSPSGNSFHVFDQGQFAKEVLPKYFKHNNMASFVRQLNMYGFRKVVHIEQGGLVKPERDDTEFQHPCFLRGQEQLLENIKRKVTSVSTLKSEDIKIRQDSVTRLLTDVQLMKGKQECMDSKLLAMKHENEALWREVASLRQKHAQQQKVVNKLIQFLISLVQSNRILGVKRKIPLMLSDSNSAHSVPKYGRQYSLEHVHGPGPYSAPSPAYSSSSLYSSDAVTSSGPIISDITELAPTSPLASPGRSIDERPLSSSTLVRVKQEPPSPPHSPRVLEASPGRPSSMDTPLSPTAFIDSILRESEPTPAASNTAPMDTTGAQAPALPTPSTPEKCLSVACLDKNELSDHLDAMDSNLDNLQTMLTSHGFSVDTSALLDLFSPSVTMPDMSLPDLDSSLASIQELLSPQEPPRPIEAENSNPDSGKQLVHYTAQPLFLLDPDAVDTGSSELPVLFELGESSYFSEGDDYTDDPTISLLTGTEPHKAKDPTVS
Put plainly: enhancement of HSF1-driven luciferase signal – cell-based, NIH3T3, luminescence, dose retest, confirmation (AID 435004).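 Also: stress induced by proteasome inhibitor MG132 added 30 min after compound; luciferase reporter driven by HSF1 response element in NIH3T3 cells; actives raise luminescence as potentiators of the MG132 stress response.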 The class given is functional.

In the next experiment the target is Nonstructural protein 1 (Influenza A virus, UniProt Q194T2). In kind it is functional, Influenza A virus (A/California/07/2009(H1N1)).
Nonstructural protein 1, sequence (Q194T2 whole entry): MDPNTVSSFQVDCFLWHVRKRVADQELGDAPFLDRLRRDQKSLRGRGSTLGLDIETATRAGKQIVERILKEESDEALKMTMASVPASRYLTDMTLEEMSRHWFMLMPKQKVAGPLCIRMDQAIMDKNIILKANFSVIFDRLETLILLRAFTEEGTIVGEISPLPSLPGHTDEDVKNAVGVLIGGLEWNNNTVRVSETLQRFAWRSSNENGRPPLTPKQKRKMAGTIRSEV
Experiment [3] in a line: Luminescence Cell-Based Dose Confirmation HTS to Identify Inhibitors of Platelet Dense Granule Release. [Related pubchem assays: 1663 (Primary HTS), 1678 (Summary of Project)]. The class given is functional.
Experiment [4] has as its target Luciferin 4-monooxygenase (Photinus pyralis, UniProt P08659). Put plainly: inhibition of purified Photinus pyralis luciferase – biochemical, luminescence, dose response (AID 1891).
The target in experiment [5] is Eukaryotic translation initiation factor 4E (Mus musculus, UniProt P63073). As to the kind of experiment: blockers of eIF4G binding by eIF4E – biochemical, TR-FRET, dose response (AID 855).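 Also: potency for disrupting eIF4E binding to eIF4GI seen as loss of FRET.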 The class given is functional.
Eukaryotic translation initiation factor 4E, sequence (P63073 whole entry): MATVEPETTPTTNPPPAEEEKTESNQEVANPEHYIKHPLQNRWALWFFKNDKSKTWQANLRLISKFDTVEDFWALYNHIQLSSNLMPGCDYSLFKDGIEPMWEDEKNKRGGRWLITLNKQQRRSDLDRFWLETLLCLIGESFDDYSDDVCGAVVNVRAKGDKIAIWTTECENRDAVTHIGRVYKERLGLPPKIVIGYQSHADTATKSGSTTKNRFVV
Experiment [6] concerns Streptococcus sp. 'group A'. As to the kind of experiment: Streptococcus pyogenes SK(-)GAS viability under kanamycin – luminescence, BacTiterGlo, confirmation, counter-screen for streptokinase expression inhibitor project, dose response (AID 1900). In kind it is functional, organism-based. Background: Counterscreens check selectivity or assay interference.
A short description of experiment [7]: THP-1 cell cytotoxicity, dose response, cytotoxicity control for non-replicating M. tuberculosis project (AID 489025). The class given is functional.
The subject of a further experiment is Streptococcus. Put plainly: GAS UMAA2166 growth inhibition – luminescence, BacTiterGlo, counter-screen for streptokinase expression inhibitor project, dose response (AID 1915).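 Also: potency for reduction of bacterial viability or growth.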 In kind it is functional, organism-based.
The nature of another experiment: cells. The class given is functional.
Experiment [8] is described as follows: microbe, parasite or virus in culture. The class given is functional. The note with it: Mycobacterium tuberculosis.
Experiment [9] can be described thus: viability of PTEN-deleted HCT116 cells – cell-based, HCT116 PTEN knockout, dose response (AID 1047).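 Also: HCT116 colon tumor cells with PTEN knocked out; cells exposed to compound for 60 hours before readout; potency for loss of cell viability measured by luminescence.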 The class given is functional.
A short description of experiment [10]: viability of HCT116 lacking mutant beta-catenin – cell-based, human colon tumor, dose response (AID 1045).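 Also: HCT116 colon tumor cells with beta catenin knocked out; cells exposed to compound for 60 hours.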 The class given is functional.
Experiment [11] addresses T3, Replicative DNA helicase DnaB (Mycobacterium tuberculosis, UniProt P9WMR3).
T3 sequence (P9WMR3 whole entry): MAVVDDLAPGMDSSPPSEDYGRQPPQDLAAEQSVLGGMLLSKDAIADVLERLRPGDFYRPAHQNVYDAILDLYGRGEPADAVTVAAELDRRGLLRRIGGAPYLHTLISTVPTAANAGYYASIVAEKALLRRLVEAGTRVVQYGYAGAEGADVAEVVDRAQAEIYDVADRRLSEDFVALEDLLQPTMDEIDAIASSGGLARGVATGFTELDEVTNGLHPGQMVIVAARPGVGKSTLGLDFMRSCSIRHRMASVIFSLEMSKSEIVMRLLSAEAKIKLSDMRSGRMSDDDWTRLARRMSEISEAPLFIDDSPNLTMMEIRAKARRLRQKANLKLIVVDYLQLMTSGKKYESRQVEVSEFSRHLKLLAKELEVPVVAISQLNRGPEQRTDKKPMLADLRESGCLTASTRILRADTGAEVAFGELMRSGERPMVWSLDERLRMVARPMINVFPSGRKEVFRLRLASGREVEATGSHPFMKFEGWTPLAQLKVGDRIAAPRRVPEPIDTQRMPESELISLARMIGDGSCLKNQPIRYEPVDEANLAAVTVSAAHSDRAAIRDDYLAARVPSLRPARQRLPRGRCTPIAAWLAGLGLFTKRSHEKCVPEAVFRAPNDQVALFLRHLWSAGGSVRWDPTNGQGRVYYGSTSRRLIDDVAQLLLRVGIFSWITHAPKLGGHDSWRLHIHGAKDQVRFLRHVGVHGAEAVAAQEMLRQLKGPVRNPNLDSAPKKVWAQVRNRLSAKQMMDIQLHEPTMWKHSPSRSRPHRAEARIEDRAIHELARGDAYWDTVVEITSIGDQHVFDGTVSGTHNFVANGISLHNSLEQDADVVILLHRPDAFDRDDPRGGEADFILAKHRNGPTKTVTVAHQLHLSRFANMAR
Put plainly: DnaB intein splicing inhibitors, dose response, biochemical, cell-free fluorescence (AID 449749). The class given is functional.

The next experiment addresses T4, Protein RecA (Mycobacterium tuberculosis, UniProt P9WHJ3).
T4 sequence (P9WHJ3 whole entry): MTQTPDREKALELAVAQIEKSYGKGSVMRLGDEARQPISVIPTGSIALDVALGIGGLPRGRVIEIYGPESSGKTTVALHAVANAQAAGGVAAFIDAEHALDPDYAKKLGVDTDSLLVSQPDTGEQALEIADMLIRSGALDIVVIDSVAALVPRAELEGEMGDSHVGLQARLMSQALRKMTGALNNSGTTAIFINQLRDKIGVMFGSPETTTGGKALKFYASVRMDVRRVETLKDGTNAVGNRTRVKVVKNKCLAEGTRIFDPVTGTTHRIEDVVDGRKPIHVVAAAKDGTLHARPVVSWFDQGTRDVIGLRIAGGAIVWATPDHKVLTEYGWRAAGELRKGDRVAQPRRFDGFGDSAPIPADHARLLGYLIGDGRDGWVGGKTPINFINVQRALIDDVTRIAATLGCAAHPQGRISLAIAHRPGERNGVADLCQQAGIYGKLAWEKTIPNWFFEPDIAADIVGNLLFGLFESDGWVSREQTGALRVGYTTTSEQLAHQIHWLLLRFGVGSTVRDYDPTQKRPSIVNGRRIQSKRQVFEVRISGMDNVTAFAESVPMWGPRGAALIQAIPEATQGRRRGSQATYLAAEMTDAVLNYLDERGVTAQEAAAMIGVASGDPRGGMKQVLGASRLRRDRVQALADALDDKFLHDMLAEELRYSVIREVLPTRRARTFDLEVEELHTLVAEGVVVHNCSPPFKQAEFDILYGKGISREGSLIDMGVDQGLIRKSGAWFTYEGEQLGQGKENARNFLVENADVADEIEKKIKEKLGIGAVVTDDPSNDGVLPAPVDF
Put plainly: Fluorescence Cell-Free Homogeneous Dose Retest to Identify Inhibitors of RecA-Intein Splicing Activity. [Related pubchem assays (depositor defined):AID2097, AID2223, AID489010, AID492950]. In kind it is functional.

Experiment [12] addresses Heat shock protein HSP 90-alpha (Homo sapiens, UniProt P07900). In kind it is functional, organism-based.
The target of a further experiment is Large T antigen (Simian virus 40, UniProt P03070). In kind it is functional, Betapolyomavirus macacae.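 Also: Confirmatory-stage PubChem screen for compounds that inhibit SV40 T antigen.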
Large T antigen, sequence (P03070 whole entry): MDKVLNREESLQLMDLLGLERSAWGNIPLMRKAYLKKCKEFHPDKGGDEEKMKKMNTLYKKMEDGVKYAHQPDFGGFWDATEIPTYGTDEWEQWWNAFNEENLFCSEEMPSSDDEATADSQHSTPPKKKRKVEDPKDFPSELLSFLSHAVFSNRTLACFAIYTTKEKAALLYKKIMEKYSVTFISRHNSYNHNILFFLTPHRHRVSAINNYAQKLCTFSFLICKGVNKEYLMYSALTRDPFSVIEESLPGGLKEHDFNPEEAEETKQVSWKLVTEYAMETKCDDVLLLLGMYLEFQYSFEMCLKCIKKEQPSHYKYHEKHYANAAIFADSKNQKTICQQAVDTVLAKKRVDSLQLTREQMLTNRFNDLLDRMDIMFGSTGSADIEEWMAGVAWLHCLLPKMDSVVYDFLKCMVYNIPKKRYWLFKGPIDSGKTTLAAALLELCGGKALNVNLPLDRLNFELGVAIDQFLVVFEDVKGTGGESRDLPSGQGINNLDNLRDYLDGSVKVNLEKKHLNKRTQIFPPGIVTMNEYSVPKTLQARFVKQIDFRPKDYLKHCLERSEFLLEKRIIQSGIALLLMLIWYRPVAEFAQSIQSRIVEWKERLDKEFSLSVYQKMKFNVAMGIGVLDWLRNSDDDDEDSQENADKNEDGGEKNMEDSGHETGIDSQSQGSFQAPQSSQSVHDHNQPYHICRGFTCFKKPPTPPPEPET

Activity calls are given as the source filed them. A value given as a limit tells only on which side of the number the result lay.

Luciferin 4-monooxygenase, sequence (P08659 whole entry): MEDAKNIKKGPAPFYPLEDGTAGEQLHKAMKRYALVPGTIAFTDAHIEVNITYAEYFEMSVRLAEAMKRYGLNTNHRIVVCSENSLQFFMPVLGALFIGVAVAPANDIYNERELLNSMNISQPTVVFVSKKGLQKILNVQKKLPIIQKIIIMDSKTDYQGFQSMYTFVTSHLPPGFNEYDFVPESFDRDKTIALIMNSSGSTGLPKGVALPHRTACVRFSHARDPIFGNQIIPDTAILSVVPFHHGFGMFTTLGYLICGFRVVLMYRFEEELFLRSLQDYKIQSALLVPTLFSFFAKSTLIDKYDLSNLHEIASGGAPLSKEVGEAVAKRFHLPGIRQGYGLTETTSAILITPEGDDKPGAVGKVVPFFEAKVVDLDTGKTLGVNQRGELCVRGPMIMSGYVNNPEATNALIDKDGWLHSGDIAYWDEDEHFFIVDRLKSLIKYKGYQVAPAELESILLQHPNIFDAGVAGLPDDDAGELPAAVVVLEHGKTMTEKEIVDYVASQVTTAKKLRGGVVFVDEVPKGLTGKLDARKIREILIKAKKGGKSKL

A word on the IC50: it is the concentration that gives 50% inhibition. Regarding `CC(C)CC(=O)n1sc(NC(=O)c2ccccc2)nc1=O`, the IC50 on Leucine aminopeptidase is 43.9 µM (active). For orientation: AC50 means the concentration at which the activity in the assay is half-maximal. Broadly, the EC50 is the concentration giving half of the maximal effect. On to `CCCCN(CCCNC(=O)C1CCN(S(=O)(=O)CC)CC1)c1ccccc1`, for which, in experiment [1], the AC50 was 0.131 µM (active). In experiment [2], the EC50 was > 260 µM (inactive). As to `COc1ccc(Nc2ccc(S(=O)(=O)N3CCCCCC3)cc2[N+](=O)[O-])cc1`, on Nonstructural protein 1, the IC50 is 45.6 µM (active). On to `COc1ccc(N2CC(C(=O)NCc3ccccc3)CC2=O)cc1` (stereo not drawn), for which the EC50 in experiment [3] and in [4] was > 112 µM (not active) each time. For the compound `CCN(CC)CCNS(=O)(=O)c1ccc(C(=O)NN)cc1`, in experiment [1], the AC50 is 3.39 µM (active). On to `COc1cc2cc(C(N)=O)c(N)nc2cc1OC`, for which the EC50 in [3] was 40 µM (active); in [4] it was > 112 µM (not active). Regarding `CCCN1CCC(=NNC(=O)c2ccc(Br)o2)CC1`, the IC50 in experiment [5] is > 64 µM (inactive). Take `CC1=C(C(=O)OCc2ccccc2)C(c2ccc(Cl)cc2Cl)NC(=O)N1CCCCCC(=O)O` (stereo not drawn): the IC50 at Leucine aminopeptidase is 20.4 µM (active). `CCOC(=O)c1nc(O)c2c3c(sc2n1)CCCC3`: in experiment [3], the EC50 was > 112 µM (not active).

Take `CCOC(=O)c1nc2sc3c(c2c(=O)[nH]1)CCCC3`: in experiment [4], the EC50 was > 112 µM (not active).

As for `Cc1cc2nc(N/C(N)=N/C(=O)C(C)C)nc(C)c2cc1C`, the EC50 (in experiment [6]; in the experiment on Streptococcus) was > 150 µM (not active) each time. The CC50 in experiment [7] is 17 µM (active); in [8], > 40 µM (active). Moreover, the IC50 in “cells” is 20.3 µM (active).

For the compound `Fc1ccc(C2CC(c3ccccc3)n3ncnc3N2)cc1` (stereo not drawn), the EC50 in [3] and in [4] was > 112 µM (not active) each time.

Take `Cn1nc(C(=O)OCC(=O)Nc2sccc2C(N)=O)c2ccccc2c1=O`: the EC50 in experiment [3] and in [4] was > 112 µM (not active) in each case. On to `O=C(CSc1nc[nH]n1)Nc1ccc(S(=O)(=O)N2CCCC2)cc1`, for which, at Leucine aminopeptidase, the IC50 was 82.5 µM (active).

Regarding `CCc1ccc(C2=NN(c3ccc(S(N)(=O)=O)cc3)C(c3ccc(F)cc3)C2)cc1` (stereo not drawn), the CC50 in [8] is 27.6 µM (active). The EC50 in [9] was 16.6 µM (active); in [10] it was 17.9 µM (active). Turning to `O=C1CC(N2CCc3ccccc32)C(=O)N1c1ccccc1` (stereo not drawn), the AC50 in experiment [1] is 0.677 µM (active).

With `O=C(CCl)Nc1sccc1C(=O)c1ccccc1`, the CC50 in experiment [8] is 18.1 µM (active). The AC50 in experiment [11] is 4.8 µM (active). For the same compound, the EC50 on Protein RecA was 4.78 µM (active).

Turning to `CC(C)COc1ccc(C(=O)Nc2ccc(NC(=O)c3ccco3)c(Cl)c2)cc1`, the EC50 in [3] and in experiment [4] was > 112 µM (not active) throughout.

Regarding `COc1cc(C=NO)nc(-c2ccccn2)c1`, the IC50 on Nonstructural protein 1 was 2.51 µM (active). The AC50 in [12] was 3.2 µM (active). On to `Cc1ccsc1/C=N/n1c(S)nnc1-c1cccnc1`, for which the IC50 in [5] was > 64 µM (inactive); at Large T antigen, 30.3 µM (active).

Turning to `Cc1[nH]c(=O)c(C#N)cc1-c1ccncc1` [MILRINONE], the EC50 in [3] was 0.634 µM (active); in experiment [4], > 112 µM (not active).
